This is an account of results in patent US20220265612A1, “CARDIAC SARCOMERE INHIBITOR ORAL FORMULATIONS” (Cytokinetics, Inc., priority 2019, published 2022).

Test [1] concerns rat cardiac contractility. In words: Echocardiography assessment of cardiac contractility, oral gavage. The test is classed as in vivo, Sprague Dawley rats. To be noted: oral dosing, estimated value. The protocol:
Assessment of in vivo cardiac function by echocardiography was performed in male Sprague Dawley rats under isoflurane (1-3%) anesthesia. […] In vivo fractional shortening was determined by M-mode image analysis with the following calculation: ((End diastolic diameter−end systolic diameter)/end diastolic diameter×100). […] During infusion, M-mode images were taken at 5 minute intervals. The infusion stopped when fractional shortening reached up to a 60% reduction from baseline. […] Data was reported as an estimated IC50 value, which is the concentration at which fractional shortening is 50% of the pre-dose baseline contractility.
For oral dosing studies, three pre-dose baseline M-Mode images were taken at 1 minute intervals prior to compound administration. […] Rats were lightly anesthetized for M-Mode echocardiography measurements at select time points over a 24 hour period. Different dose levels were evaluated for (R)-N-(5-(5-ethyl-1,2,4-oxadiazol-3-yl)-2,3-dihydro-1H-inden-1-yl)-1-methyl-1H-pyrazole-4-carboxamide. The compound effect on cardiac fractional shortening at the highest dose evaluated is presented in Table D as a percent reduction of baseline fractional shortening (=100%).

Test [2] has as its target T1, bovine cardiac myofibrils (Bos taurus, UniProt Q9BE39).
T1 construct: full-length cardiac myosin in the context of the native sarcomere; from tissue; host or cells: bovine cardiac left ventricular tissue, detergent-skinned (Triton X-100) myofibrils
In words: Skinned bovine cardiac myofibril ATPase assay (PK/LDH-coupled). The test is classed as biochemical. To be noted: myofibril ATPase at Ca2+ giving 75% activation (pCa75). From the text: Bovine cardiac myofibrils were obtained by homogenizing bovine cardiac left ventricular tissue in the presence of a detergent such as triton X-100. Such treatment removes membranes and a majority of the soluble cytoplasmic proteins but leaves intact the cardiac sarcomeric acto-myosin apparatus. Myofibril preparations retain the ability to hydrolyze ATP in a Ca^2+ regulated manner. […] This assay regenerates myosin-produced ADP into ATP by oxidizing NADH, producing an absorbance change at 340 nm.

T1 sequence (Q9BE39 whole entry): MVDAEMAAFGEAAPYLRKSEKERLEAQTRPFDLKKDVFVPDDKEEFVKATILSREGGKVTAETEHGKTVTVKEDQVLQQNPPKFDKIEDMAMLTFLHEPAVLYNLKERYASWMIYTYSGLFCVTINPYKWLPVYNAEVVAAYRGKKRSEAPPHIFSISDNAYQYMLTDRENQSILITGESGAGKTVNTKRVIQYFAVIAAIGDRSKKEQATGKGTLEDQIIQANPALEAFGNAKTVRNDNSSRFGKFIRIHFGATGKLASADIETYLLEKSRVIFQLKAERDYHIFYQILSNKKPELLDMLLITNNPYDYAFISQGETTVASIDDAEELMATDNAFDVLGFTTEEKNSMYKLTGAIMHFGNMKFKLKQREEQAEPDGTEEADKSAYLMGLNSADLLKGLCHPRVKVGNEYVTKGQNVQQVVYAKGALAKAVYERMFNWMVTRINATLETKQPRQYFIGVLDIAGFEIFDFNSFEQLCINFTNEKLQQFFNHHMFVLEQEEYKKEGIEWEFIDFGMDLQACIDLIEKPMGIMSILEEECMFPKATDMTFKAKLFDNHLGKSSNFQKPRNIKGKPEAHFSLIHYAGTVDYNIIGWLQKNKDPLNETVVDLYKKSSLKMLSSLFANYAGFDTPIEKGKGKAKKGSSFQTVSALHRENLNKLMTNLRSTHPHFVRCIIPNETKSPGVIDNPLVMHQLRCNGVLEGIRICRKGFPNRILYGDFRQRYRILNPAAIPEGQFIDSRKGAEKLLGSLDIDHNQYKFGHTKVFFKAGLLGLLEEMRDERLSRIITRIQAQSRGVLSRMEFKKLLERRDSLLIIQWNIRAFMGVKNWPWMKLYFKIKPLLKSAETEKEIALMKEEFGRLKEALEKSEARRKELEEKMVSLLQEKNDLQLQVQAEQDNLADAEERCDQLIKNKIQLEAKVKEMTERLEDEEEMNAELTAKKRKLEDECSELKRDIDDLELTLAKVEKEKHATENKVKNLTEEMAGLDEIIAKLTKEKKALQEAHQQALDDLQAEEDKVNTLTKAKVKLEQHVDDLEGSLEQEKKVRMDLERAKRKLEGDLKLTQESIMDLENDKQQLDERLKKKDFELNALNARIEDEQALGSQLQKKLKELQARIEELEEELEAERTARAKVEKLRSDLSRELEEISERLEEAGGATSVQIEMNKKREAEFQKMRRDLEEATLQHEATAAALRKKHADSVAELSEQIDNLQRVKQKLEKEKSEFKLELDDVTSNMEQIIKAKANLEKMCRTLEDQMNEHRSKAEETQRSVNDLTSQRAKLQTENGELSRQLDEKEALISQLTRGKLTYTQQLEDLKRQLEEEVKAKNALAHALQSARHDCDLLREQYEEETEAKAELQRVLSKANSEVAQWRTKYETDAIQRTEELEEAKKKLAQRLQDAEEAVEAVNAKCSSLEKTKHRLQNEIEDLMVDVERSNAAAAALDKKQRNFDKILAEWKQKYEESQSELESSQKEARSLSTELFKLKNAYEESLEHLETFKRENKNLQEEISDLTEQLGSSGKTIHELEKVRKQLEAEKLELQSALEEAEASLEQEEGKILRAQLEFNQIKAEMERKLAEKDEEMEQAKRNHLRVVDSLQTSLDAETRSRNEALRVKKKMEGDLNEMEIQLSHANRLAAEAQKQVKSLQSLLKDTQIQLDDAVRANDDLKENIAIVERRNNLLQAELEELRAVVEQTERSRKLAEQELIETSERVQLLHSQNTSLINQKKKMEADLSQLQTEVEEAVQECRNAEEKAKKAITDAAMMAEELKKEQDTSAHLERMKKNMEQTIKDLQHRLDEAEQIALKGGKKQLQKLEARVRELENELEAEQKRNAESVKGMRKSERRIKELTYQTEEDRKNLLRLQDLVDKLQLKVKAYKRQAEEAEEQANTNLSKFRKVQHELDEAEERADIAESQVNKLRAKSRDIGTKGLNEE
T1 sequence (P85100 whole entry partner): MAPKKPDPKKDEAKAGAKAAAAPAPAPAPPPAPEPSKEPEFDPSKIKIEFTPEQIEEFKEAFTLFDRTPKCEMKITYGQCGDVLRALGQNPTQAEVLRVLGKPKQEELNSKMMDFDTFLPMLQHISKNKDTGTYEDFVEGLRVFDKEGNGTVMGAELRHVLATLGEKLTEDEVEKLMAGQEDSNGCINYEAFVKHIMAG
T1 sequence (Q3SZE5 whole entry partner): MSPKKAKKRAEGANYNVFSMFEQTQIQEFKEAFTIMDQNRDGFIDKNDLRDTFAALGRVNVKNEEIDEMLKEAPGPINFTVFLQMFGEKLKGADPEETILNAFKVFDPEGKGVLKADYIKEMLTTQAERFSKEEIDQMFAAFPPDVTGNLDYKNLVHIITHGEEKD

As to `CCc1nc(-c2ccc3c(c2)CC[C@H]3NC(=O)c2cnn(C)c2)no1` [(R)-N-(5-(5-ethyl-1,2,4-oxadiazol-3-yl)-2,3-dihydro-1H-inden-1-yl)-1-methyl-1H-pyrazole-4-carboxamide], the “IC10, plasma concentration for fractional shortening” value in test [1] was 800 nM. For the same compound, the “CDMF75 IC15” value in test [2] worked out at 400 nM.
